Key:
A549 = test: Antiproliferative activity against human A549 cells assessed as growth inhibition after 48 hrs by MTT assay; assay type: functional, cell-based; conditions: A549, 48 h
[1] = target: Epidermal growth factor receptor (Homo sapiens, UniProt P00533); test: Inhibition of EGFR (unknown origin) incubated for 1 hr assessed as luminescence changes using ATP by ADP-Glo Kinase assay
[2] = target: Vascular endothelial growth factor receptor 2 (Homo sapiens, UniProt P35968); test: Inhibition of KDR (unknown origin) incubated for 1 hr assessed as luminescence changes using ATP by ADP-Glo Kinase assay
[3] = target: Fibroblast growth factor receptor 1 (Homo sapiens, UniProt P11362); test: Inhibition of FGFR1 (unknown origin) incubated for 1 hr assessed as luminescence changes using ATP by ADP-Glo Kinase assay
[4] = Antiproliferative activity against human SMMC7721 cells assessed as growth inhibition after 48 hrs by MTT assay; assay type: functional, cell-based; conditions: SMMC-7721, 48 h

Chain of Vascular endothelial growth factor receptor 2 (P35968 whole entry): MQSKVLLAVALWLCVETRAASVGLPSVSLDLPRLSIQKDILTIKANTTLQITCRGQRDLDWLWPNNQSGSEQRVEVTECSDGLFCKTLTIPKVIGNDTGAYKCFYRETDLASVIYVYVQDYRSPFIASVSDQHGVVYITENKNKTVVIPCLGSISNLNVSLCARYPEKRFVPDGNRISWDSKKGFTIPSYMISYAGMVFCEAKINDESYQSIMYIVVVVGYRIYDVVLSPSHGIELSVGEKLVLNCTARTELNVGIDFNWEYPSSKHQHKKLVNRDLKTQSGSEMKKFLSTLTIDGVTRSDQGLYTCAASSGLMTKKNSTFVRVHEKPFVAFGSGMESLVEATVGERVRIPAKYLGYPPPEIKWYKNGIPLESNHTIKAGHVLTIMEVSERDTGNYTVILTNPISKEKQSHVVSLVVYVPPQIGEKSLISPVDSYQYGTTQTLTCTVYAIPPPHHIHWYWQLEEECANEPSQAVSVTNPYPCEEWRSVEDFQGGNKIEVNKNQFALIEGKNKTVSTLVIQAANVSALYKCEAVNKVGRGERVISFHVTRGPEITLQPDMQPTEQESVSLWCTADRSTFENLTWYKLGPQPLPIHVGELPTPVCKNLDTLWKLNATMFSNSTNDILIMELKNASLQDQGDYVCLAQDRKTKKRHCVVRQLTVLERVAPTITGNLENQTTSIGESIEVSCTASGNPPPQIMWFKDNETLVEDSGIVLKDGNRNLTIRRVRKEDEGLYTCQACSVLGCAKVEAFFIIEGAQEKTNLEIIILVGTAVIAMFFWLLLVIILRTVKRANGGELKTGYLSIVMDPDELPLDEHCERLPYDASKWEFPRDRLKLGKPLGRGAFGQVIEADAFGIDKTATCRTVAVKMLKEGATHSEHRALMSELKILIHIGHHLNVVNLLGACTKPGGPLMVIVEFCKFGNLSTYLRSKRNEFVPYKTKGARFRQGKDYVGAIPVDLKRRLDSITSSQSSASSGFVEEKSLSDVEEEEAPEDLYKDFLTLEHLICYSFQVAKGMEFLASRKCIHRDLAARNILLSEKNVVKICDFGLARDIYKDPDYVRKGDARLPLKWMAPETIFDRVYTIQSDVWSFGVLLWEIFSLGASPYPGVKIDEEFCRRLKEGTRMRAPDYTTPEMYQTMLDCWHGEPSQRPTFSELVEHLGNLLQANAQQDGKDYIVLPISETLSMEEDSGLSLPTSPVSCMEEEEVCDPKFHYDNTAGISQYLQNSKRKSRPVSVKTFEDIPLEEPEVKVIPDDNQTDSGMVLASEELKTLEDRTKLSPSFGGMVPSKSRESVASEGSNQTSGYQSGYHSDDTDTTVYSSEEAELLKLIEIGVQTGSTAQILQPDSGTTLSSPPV
Chain of Epidermal growth factor receptor (P00533 whole entry): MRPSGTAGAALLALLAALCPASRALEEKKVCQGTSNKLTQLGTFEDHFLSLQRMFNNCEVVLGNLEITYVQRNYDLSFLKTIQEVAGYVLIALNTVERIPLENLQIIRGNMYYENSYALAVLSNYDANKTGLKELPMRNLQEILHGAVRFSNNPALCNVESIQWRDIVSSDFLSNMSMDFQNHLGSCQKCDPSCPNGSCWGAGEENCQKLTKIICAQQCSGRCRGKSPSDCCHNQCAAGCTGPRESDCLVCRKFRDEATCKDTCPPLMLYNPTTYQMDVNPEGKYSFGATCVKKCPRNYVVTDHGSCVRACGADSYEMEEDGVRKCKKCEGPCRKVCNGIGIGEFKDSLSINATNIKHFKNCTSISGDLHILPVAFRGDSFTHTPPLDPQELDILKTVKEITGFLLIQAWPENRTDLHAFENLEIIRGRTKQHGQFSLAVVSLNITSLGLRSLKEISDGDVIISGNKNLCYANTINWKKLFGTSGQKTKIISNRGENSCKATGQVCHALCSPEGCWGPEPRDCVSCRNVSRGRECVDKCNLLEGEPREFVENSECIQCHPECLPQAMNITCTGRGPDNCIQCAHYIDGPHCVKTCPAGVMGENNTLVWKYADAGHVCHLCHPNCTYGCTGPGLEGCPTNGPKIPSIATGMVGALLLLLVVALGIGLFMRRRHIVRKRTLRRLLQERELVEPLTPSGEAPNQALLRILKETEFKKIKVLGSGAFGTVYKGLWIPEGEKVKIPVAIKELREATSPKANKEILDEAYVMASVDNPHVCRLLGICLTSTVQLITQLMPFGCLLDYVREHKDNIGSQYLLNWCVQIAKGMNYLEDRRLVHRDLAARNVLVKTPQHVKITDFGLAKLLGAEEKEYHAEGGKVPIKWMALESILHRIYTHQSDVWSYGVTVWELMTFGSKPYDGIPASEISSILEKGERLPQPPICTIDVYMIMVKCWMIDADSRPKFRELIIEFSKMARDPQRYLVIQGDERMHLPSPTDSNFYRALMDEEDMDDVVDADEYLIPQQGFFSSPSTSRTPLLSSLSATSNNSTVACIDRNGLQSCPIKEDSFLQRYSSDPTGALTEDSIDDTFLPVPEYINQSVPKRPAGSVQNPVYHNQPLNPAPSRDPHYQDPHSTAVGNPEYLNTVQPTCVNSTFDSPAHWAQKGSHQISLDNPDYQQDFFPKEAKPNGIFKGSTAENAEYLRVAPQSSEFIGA
Chain of Fibroblast growth factor receptor 1 (P11362 whole entry): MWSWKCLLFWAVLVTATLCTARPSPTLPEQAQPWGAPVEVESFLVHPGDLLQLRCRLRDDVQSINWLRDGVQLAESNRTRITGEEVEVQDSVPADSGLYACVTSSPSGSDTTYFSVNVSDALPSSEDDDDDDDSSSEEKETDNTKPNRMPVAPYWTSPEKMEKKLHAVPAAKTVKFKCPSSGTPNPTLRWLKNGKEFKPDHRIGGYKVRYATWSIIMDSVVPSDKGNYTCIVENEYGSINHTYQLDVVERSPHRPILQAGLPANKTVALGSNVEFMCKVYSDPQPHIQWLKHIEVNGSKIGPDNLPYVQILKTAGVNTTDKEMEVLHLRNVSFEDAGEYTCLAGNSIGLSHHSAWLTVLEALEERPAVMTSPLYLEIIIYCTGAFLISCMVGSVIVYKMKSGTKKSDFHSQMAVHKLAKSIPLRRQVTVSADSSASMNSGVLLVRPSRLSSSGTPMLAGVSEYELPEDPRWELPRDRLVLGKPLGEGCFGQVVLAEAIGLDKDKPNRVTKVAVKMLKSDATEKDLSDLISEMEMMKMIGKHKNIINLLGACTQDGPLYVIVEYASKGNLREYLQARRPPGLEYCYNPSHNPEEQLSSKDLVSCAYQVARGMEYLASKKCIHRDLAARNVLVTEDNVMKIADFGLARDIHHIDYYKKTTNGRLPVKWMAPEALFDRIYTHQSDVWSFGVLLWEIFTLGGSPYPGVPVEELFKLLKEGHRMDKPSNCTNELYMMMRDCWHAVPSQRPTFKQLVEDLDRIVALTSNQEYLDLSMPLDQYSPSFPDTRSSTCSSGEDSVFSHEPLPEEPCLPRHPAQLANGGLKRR

Compound	IC50 (A549) [nM]	IC50 [1] [nM]	IC50 [2] [nM]	IC50 [3] [nM]	IC50 [4] [nM]
Cn1cnc(-c2cc(NC(=O)Nc3nccs3)cc(C(F)(F)F)c2)c1	163000	311	285	> 500	
O=C(Nc1cc(-c2cccnc2)cc(C(F)(F)F)c1)Nc1nccs1	92100	78.2	57.4	99.2	68200
COc1cc(NC(=O)Nc2nccs2)cc(-c2cn(C)cn2)c1OC		362	420	> 500	
O=C(Nc1ccncc1)Nc1cc(-c2cccnc2)cc(C(F)(F)F)c1	> 300000	189	93	138	
COc1cc(NC(=O)Nc2ccncc2)cc(-c2cncnc2)c1OC	17300	290	492	> 500	12900
COc1ccc(-c2cc(NC(=O)Nc3nccs3)cc(C(F)(F)F)c2)cn1		477	> 500	> 500	36200
O=C(Nc1ccccn1)Nc1cc(-c2cccnc2)ccc1OC(F)(F)F	19000		86.7	130	35600
Cn1cnc(-c2cc(NC(=O)Nc3ccncc3)cc(C(F)(F)F)c2)c1	39400	166	223	261	235000
COc1cc(NC(=O)Nc2ccccn2)cc(-c2c[nH]cn2)c1OC	14100	24.8	33.2	56.5	21200
O=C(Nc1ccncc1)Nc1cc(-c2cncnc2)ccc1OC(F)(F)F	3750	18	22.2	32.6	3990
O=C(Nc1ccccn1)Nc1cc(-c2cncnc2)ccc1OC(F)(F)F	15200	26.6	52.2	81.3	21600
COc1cc(NC(=O)Nc2ccncc2)cc(-c2cccnc2)c1OC		131	213	272	73600
COc1ccc(-c2ccc(OC(F)(F)F)c(NC(=O)Nc3ccncc3)c2)cn1	> 300000	103	> 500	99.8	
COc1ccc(-c2cc(NC(=O)Nc3ccncc3)cc(OC)c2OC)cn1		455	> 500	> 500	
O=C(Nc1cc(-c2cncnc2)cc(C(F)(F)F)c1)Nc1nccs1	18300	71.8	86.7	> 500	29700
Cn1cnc(-c2ccc(OC(F)(F)F)c(NC(=O)Nc3ccncc3)c2)c1	79300	94.8	355	371	> 300000
CNC(=O)c1cc(Oc2ccc(NC(=O)Nc3ccc(Cl)c(C(F)(F)F)c3)cc2)ccn1 [SORAFENIB]	2020				1580
COc1ccc(-c2ccc(OC(F)(F)F)c(NC(=O)Nc3nccs3)c2)cn1	35000	495	390	> 500	44100
COc1cc(NC(=O)Nc2nccs2)cc(-c2cccnc2)c1OC	106000	317	291	334	
COc1ccc(-c2cc(NC(=O)Nc3ccccn3)cc(OC)c2OC)cn1	24700	66.6	79.4	> 500	32900
O=C(Nc1ccncc1)Nc1cc(-c2cncnc2)cc(C(F)(F)F)c1	2420	14.8	21.6	28.2	3730
COc1ccc(-c2cc(NC(=O)Nc3ccncc3)cc(C(F)(F)F)c2)cn1	276000	> 500	364	> 500	> 300000
O=C(Nc1nccs1)Nc1cc(-c2cncnc2)ccc1OC(F)(F)F	17600	71.7	68.6	154	9350
O=C(Nc1ccncc1)Nc1cc(-c2cccnc2)ccc1OC(F)(F)F	39800	97.2	128	104	42800
COc1cc(NC(=O)Nc2ccccn2)cc(-c2cccnc2)c1OC	13500	48.8	> 500	69.3	22400
COc1ccc(-c2ccc(OC(F)(F)F)c(NC(=O)Nc3ccccn3)c2)cn1	177000	> 500	> 500	> 500	90400
O=C(Nc1nccs1)Nc1cc(-c2cccnc2)ccc1OC(F)(F)F		121	107	96.1	12500
